Patent US20140221499A1, “NOVEL RODENT CONTROL AGENTS AND USES THEREOF” (priority 2011, published 2014)

Experiments:
Format in all cases: cell-based
rTAAR7d = target: T1, rTAAR7d (Rattus norvegicus, UniProt Q923X5); assay: TAAR reporter gene assay, rTAAR7d; parameters: Full Taar coding regions were cloned into pcDNA3.1-(Invitrogen); Rho tag (first 20 aa of bovine rhodopsin + linker); expressed in transfected cells; host or cells: HEK293
T1 sequence (Q923X5 1-358): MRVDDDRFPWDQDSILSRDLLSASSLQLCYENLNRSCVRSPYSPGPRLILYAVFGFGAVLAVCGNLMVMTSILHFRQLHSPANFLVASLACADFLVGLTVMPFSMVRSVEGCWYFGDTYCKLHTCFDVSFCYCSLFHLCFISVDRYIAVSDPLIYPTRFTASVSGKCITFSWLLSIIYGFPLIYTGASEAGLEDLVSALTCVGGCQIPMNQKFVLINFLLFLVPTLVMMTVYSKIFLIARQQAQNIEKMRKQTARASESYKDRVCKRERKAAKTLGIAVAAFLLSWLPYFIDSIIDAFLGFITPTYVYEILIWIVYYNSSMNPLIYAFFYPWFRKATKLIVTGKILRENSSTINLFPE
Text: (§1) Here, we set out to identify agonists for additional mouse and rat TAARs. We examined odor response profiles using a previously established reporter gene assay based on cAMP-dependent odor transduction in olfactory sensory neurons (40, 42). Briefly, TAAR plasmids were transfected into HEK293 cells along with a cAMP-dependent reporter gene encoding secreted alkaline phosphatase (CRE-SEAP). TAARs were expressed both in unmodified form and as fusion proteins with an N-terminal sequence of bovine rhodopsin (‘Rho tag’) that promotes cell surface expression of some chemosensory receptors (35). Transfected cells were incubated with test chemicals, and phosphatase activity was quantified with a fluorescent substrate as a reporter for TAAR activation. In initial experiments, we tested 38 different odorant mixtures containing 244 structurally diverse test chemicals (2-5 μM) for the ability to activate each mTAAR. Subsequently, we tested 73 amines that included known mTAAR agonists and related chemicals for the ability to activate each rTAAR.
(§2) TAAR functional assays. […] Fluorescence was measured on an EnVision plate reader (Perkin Elmer) and SEAP activity graphed as relative fluorescence of a phosphatase substrate.

rTAAR7b = target: T2, rTAAR7b (Rattus norvegicus, UniProt Q923X8); assay: TAAR reporter gene assay, rTAAR7b; parameters: Full Taar coding regions were cloned into pcDNA3.1-(Invitrogen); expressed in transfected cells; host or cells: HEK293
T2 sequence (Q923X8 1-358): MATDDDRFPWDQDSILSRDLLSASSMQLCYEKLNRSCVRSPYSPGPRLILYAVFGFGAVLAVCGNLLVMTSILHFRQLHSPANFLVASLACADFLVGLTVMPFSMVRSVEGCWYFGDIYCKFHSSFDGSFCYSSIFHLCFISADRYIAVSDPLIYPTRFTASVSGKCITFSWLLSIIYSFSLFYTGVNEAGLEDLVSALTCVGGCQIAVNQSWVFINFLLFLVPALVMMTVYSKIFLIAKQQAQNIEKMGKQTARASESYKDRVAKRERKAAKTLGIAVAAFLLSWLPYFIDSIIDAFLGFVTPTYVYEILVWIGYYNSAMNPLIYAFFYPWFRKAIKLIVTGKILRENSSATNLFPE
Text: as §1, §2

mTAAR7b = target: T3, mTAAR7b (Mus musculus, UniProt Q5QD11); assay: TAAR reporter gene assay, mTAAR7b; parameters: Full Taar coding regions were cloned into pcDNA3.1-(Invitrogen); Rho tag (first 20 aa of bovine rhodopsin + linker); expressed in transfected cells; host or cells: HEK293
T3 sequence (Q5QD11 1-358): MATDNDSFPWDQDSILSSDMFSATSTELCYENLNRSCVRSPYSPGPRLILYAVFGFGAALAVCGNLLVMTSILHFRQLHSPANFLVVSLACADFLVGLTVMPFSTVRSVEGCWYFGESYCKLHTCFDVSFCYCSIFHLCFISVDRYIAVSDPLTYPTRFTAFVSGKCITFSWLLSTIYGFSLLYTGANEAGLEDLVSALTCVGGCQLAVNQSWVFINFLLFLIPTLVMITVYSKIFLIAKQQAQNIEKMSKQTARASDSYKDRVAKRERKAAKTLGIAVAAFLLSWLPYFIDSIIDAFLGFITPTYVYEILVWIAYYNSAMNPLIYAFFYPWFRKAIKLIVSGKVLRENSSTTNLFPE
Text: as §1, §2

mouse TAAR4 = target: T4, mouse TAAR4 (Mus musculus, UniProt Q5QD15); assay: TAAR4 CRE-SEAP reporter gene assay in transfected HEK293 cells; conditions: 10 μM
T4 construct: Full Taar coding regions were cloned into pcDNA3.1-(Invitrogen); expressed in transfected cells; host or cells: HEK293
T4 sequence (Q5QD15 1-347): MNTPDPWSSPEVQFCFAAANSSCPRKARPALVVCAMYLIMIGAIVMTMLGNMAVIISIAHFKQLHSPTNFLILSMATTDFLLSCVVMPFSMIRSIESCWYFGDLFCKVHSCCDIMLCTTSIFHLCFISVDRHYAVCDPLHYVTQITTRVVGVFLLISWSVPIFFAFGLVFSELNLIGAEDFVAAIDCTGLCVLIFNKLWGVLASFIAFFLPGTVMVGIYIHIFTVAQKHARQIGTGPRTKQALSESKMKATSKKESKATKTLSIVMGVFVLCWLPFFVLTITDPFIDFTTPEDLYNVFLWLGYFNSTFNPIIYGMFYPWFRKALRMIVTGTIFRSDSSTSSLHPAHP
Description: HEK293 cells were co-transfected with TAAR expression plasmids and a cAMPdependent reporter gene encoding secreted alkaline phosphatase (CRE-SEAP). Transfected cells were incubated with urine extracts from different mammalian species, and phosphatase activity was quantified with a fluorescent substrate as a reporter for TAAR activation.
Test urines were diluted in serum-free media containing penicillin G (100 Units/ml, Invitrogen) and streptomycin sulfate (100 mg/ml, Invitrogen). SEAP activity is measured as fluorescence resulting from dephosphorylation of a substrate, 4-methylumbelliferyl phosphate. Fluorescence values were obtained using an EnVision plate reader (Perkin Elmer) and are reported directly without normalization.

SMILES | rTAAR7d activation (rTAAR7d) | rTAAR7b activation (rTAAR7b) | mTAAR7b activation (mTAAR7b) | TAAR4 activation (mouse TAAR4)
CN(C)C1CCCCC1 [ligand 10, N,N-dimethylcyclohexylamine] | activated | activated | activated | –
NCCc1ccccc1 [2-phenylethylamine] | – | – | – | activates TAAR4
CN(C)CCc1ccccc1 [ligand 6, N,N-dimethyl-2-phenylethylamine] | not | not | not | –
